*1 amine or outer side, *2 acyl side, *3 side chain or, on linkers, in order; H or OH if unused. Where a SMILES comes first, the peptide text is derived from it. Bridges are numbered along the chain shown (N, C = ends). [ ]: non-standard residue; d: D form. The star is where a group is joined. Phe(4-guanidino) = N=C(N)Nc1ccc(C[C@H](N)C(=O)O)cc1; X82 = CS(=O)(=O)c1ncc(C[C@H](N[*:1])C(=O)[*:2])cn1; Ala(pyrimidin-5-yl) = N[C@@H](Cc1cncnc1)C(=O)O; X14 = O=C([C@H](Cc1c(F)cncc1F)N[*:1])[*:2]; Leu(4,5-dehydro) = C=C(C)C[C@H](N)C(=O)O; Ethyl(2-pyrrolidin-1-yl) = C1CCN(CC*)C1; Phe(2-F) = N[C@@H](Cc1ccccc1F)C(=O)O; NMe3Pal = CN[C@@H](Cc1cccnc1)C(=O)O; X1 = O=C(C12CC(CN[*:1])(C1)C2)[*:2]; X38 = NC(=O)CCCN(CC(=O)[*:2])[*:1]; Ala(cPr) = N[C@@H](CC1CC1)C(=O)O; NMeF = CN[C@@H](Cc1ccccc1)C(=O)O; PhLac = O=C(O)[C@@H](O)Cc1ccccc1; X4 = O=C([C@H](CCCF)N[*:1])[*:2]; 3Pal = N[C@@H](Cc1cccnc1)C(=O)O; d3Pal = N[C@H](Cc1cccnc1)C(=O)O; AllylGly = C=CC[C@H](N)C(=O)O; Ahp(2) = CCCCC[C@H](N)C(=O)O; Cba = N[C@@H](CC1CCC1)C(=O)O; hLeu = CC(C)CC[C@H](N)C(=O)O; X64 = O=C(C#CCN[*:1])[*:2]; αMeC = C[C@](N)(CS)C(=O)O; NMeA = CN[C@@H](C)C(=O)O; Nle = CCCC[C@H](N)C(=O)O

KRAS-G12D protein, sequence (P01116 1-188 isoform P01116-2 G12D): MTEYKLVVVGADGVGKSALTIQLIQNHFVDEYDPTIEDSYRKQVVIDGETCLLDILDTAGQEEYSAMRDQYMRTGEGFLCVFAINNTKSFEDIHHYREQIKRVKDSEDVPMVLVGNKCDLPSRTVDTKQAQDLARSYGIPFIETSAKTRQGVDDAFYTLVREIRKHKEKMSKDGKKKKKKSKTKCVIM

This assay has as its target KRAS-G12D protein (Homo sapiens, UniProt P01116, G12D). The assay is described as follows: SOS-mediated nucleotide exchange assay (BODIPY-GDP / Tb-streptavidin TR-FRET). The assay is classed as biochemical.
What is called EC50 is the concentration needed to bring the measured effect to its halfway point. Lower therefore signals a more potent agent. `CCCC[C@@H]1NC(=O)[C@@H]2C/C=C\C[C@@H](C(N)=O)NC(=O)[C@H](CSCC(=O)N[C@@H](Cc3ccccc3)C(=O)N[C@@H](CCCNC(=N)N)C(=O)N[C@@H](Cc3cccnc3)C(=O)N[C@@H](CC3CCC3)C(=O)N2)NC(=O)[C@H](Cc2cccnc2)N(C)C1=O` [SEQ ID NO: 186, cyclo(C1Ac-F-R-3Pal-cBuA-Ape-Nle-NMe3Pal-C)] ({CH2CO}-FR[3Pal][Cba][AllylGly][Nle][NMe3Pal]C[AllylGly]-NH2; staple (Z) 5-9; thioether N-8) registered an EC50 of 7.27 µM.

With `CCCCC[C@@H]1NC(=O)[C@H](Cc2ccc(OC)cc2)NC(=O)[C@H](CC2CCC2)NC(=O)[C@H](Cc2ccc(NC(=N)N)cc2)NC(=O)CN(CCCC(N)=O)C(=O)[C@H](Cc2ccccc2)NC(=O)CSC[C@@](C)(C(N)=O)NC(=O)[C@H](Cc2ccccc2)N(C)C1=O` [compound 386, cyclo(F-Cmpg-Phe4Gn-cBuA-TyrOMe-Abp-NMeF-aMeCl-ClAc)] ({CH2CO}-F[X38][Phe(4-guanidino)][Cba]Y(Me)[Ahp(2)][NMeF][αMeC]-NH2; thioether N-8), a half-maximal effect (EC50) was put at 0.134 µM. For the molecule `CCCC[C@@H]1NC(=O)[C@H](Cc2cnc(S(C)(=O)=O)nc2)NC(=O)[C@H](C)N(C)C(=O)[C@H](Cc2ccccc2)OC(=O)C23CC(CNC(=O)[C@H](Cc4ccccc4)N(C)C(=O)[C@H](CCCC)NC(=O)[C@H](Cc4ccccc4F)NC1=O)(C2)C3` [compound 313, cyclo(FLac-NMeA-AlaPyrim4SO2Me-Nle-Phe2F-Nle-NMeF-amBCP)] (cyclo([NMeA][X82][Nle][Phe(2-F)][Nle][NMeF][X1][PhLac])), the EC50 was 0.00522 µM. The figure for `CC(C)CC[C@@H]1NC(=O)[C@H](Cc2c(F)cncc2F)NC(=O)[C@H](CC2CC2)NC(=O)[C@H](Cc2cncnc2)NC(=O)[C@H](C)N(C)C(=O)[C@H](Cc2ccccc2)OC(=O)C23CC(CNC(=O)[C@H](Cc4ccccc4)N(C)C1=O)(C2)C3` [compound 292, cyclo(FLac-NMeA-PyrimAla-cPrA-4Pal26F2-hL-NMeF-amBCP)] (cyclo([Ala(cPr)][X14][hLeu][NMeF][X1][PhLac][NMeA][Ala(pyrimidin-5-yl)])) is 0.064 µM; for `C=C(C)C[C@@H]1NC(=O)[C@H](CCCC)NC(=O)[C@H](Cc2cccnc2)NC(=O)[C@H](CCCNC(=N)N)NC(=O)[C@H](Cc2ccccc2)NC(=O)CSC[C@@](C)(C(N)=O)NC(=O)[C@H](Cc2cccnc2)N(C)C(=O)[C@H](CCCC)NC1=O` [compound 44, cyclo(F-R-3Pal-Nle-deHLeu-Nle-NMe3Pal-aMeCl-ClAc)] ({CH2CO}-FR[3Pal][Nle][Leu(4,5-dehydro)][Nle][NMe3Pal][αMeC]-NH2; thioether N-8) it is 0.526 µM; for `CCCC[C@@H]1NC(=O)[C@H](Cc2ccccc2F)NC(=O)[C@H](CC2CCC2)NC(=O)[C@@H](Cc2cccnc2)NC(=O)[C@H](CCCNC(=N)N)NC(=O)[C@H](Cc2ccccc2)NC(=O)C#CCNC(=O)[C@H](Cc2cccnc2)N(C)C1=O` [compound 104, cyclo(F-R-d3Pal-cBuA-Phe2F-Nle-NMe3Pal-amBYA)] (cyclo(FR[d3Pal][Cba][Phe(2-F)][Nle][NMe3Pal][X64])) it is 0.387 µM. The figure for `CCCC[C@@H]1NC(=O)[C@H](Cc2ccccc2F)NC(=O)[C@H](CCCF)NC(=O)[C@H](Cc2cccnc2)NC(=O)[C@H](C)N(C)C(=O)[C@H](Cc2ccccc2)OC(=O)C23CC(CNC(=O)[C@H](Cc4cccnc4)N(C)C1=O)(C2)C3` [compound 120, cyclo(FLac-NMeA-3Pal-NvaF-Phe2F-Nle-NMe3Pal-amBCP)] (cyclo([3Pal][X4][Phe(2-F)][Nle][NMe3Pal][X1][PhLac][NMeA])) is 0.0351 µM; for `CCCC[C@@H]1NC(=O)[C@H](Cc2ccc(OCCN3CCCC3)cc2)NC(=O)[C@H](C)N(C)C(=O)[C@H](Cc2ccccc2)OC(=O)C23CC(CNC(=O)[C@H](Cc4ccccc4)N(C)C(=O)[C@H](CCCC)NC(=O)[C@H](Cc4ccccc4F)NC1=O)(C2)C3` [compound 316, cyclo(FLac-NMeA-TyrOEtPyr-Nle-Phe2F-Nle-NMeF-amBCP)] (cyclo([NMeA]Y(Ethyl(2-pyrrolidin-1-yl))[Nle][Phe(2-F)][Nle][NMeF][X1][PhLac])) it is 0.00734 µM.

For the origin of these results see patent US20260001914A1, “MACROCYCLIC PEPTIDES TARGETING KRAS” (Merck Sharp & Dohme LLC, priority 2022, published 2026).
